Earlier results as cited in PMC6921407, “Novel coumarins active against Trypanosoma cruzi and toxicity assessment using the animal model Caenorhabditis elegans” (BMC Pharmacology & Toxicology, 2019).

Tests used:
[1] = system: Trypanosoma cruzi epimastigotes (Tulahuen 2 strain); parameters: method as in PMID 19811923; conditions: in vitro, epimastigote form of T. cruzi; cited from earlier work
T. cruzi = system: T. cruzi; parameters: method as in doi:10.1351/pac200173030617; conditions: proposed mechanism glyceraldehyde 3-phosphate dehydrogenase inhibition; cited from earlier work
Trypanosoma cruzi = system: Trypanosoma cruzi; parameters: method as in PMID 24340110; conditions: cited from earlier work
C. elegans = system: C. elegans; parameters: method as in PMID 23727123; conditions: for the worm; cited from earlier work

Compound: O=C(Cn1ccnc1[N+](=O)[O-])NCc1ccccc1 [Benznidazole]
- IC50 compared with Nifurtimox [1]: very similar IC50 values

Compound: C=CC(C)(C)c1cc2cc3c(cc2oc1=O)O[C@H](C(C)(C)O)C3 [Chalepin]
- IC50 (T. cruzi): 64 µM

Compound: Soulamarin
- IC50 (Trypanosoma cruzi): 210 µM

Compound: CCCSc1ccc2nc(NC(=O)OC)[nH]c2c1 [albendazole]
- EC50 (C. elegans): 18.4 µM
